26 molecules from US10144706B2 (BRISTOL-MYERS SQUIBB COMPANY, priority 2016, dated 2018) can be followed below.

The first assay deals with T1, PD-1/PD-L1 interaction (PD-1-Ig / PD-L1-His) (Homo sapiens, UniProt Q9NZQ7).
T1 construct: hPDL1(18-239)-TVMV-His; TVMV protease site linker (C); made in house; host or cells: HEK293T
T1 sequence (Q9NZQ7 with tags, fused parts or gaps): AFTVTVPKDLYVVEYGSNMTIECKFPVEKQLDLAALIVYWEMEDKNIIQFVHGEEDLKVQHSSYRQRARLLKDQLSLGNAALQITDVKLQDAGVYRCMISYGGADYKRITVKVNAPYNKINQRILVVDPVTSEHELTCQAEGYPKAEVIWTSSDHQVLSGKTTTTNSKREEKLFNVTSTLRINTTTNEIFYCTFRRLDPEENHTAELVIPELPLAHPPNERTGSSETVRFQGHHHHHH
Kind of assay: PD-1/PD-L1 Homogenous Time-Resolved Fluorescence (HTRF) binding assay. The note with it: IC50 range class; PD-L1-His 10 nM, PD-1-Ig 20 nM; read-out: Range or IC50. In short, it runs like this:
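Human PD-L1-His (10 nM final) was pre-incubated with inhibitor for 15 min, then PD-1-Ig (20 nM final) was added for a further 15 min in dPBS with 0.1% BSA and 0.05% Tween-20. Binding was detected by HTRF using Eu-cryptate anti-Ig (1 nM) and APC anti-His (20 nM).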
On the technique in general: TR-FRET usually uses a lanthanide donor and a delayed reading to cut background.
The IC50 is the concentration that inhibits the measured activity by half. `Cc1cc(OCc2cccc(-c3cccc(COc4cc(OCc5cncc(C#N)c5)c(CN5CCCC[C@H]5C(=O)O)cc4Cl)c3C)c2C)c(Cl)cc1CN1CCCC[C@H]1C(=O)O` [Example 5503, (S)-1-(4-((3′-((4-(((S)-2-carboxypiperidin-1-yl)methyl)-2-chloro-5-((5-cyanopyridin-3-yl)methoxy)phenoxy)methyl)-2,2′-dimethyl-[1,1′-biphenyl]-3-yl)methoxy)-5-chloro-2-methylbenzyl)piperidine-2-carboxylic acid]: the IC50 fell in the range of 0.04 to 20 nM. In the case of `Cc1cc(OCc2cccc(-c3cccc(COc4cc(OCc5cncc(C#N)c5)c(CNCCC(=O)O)cc4Cl)c3C)c2C)c(Cl)cc1CNCCC(=O)O` [Example 5504, 3-((4-((3′-((4-(((2-carboxyethyl)amino)methyl)-2-chloro-5-((5-cyanopyridin-3-yl)methoxy)phenoxy)methyl)-2,2′-dimethyl-[1,1′-biphenyl]-3-yl)methoxy)-5-chloro-2-methylbenzyl)amino)propanoic acid], the IC50 fell in the range of 0.04 to 20 nM. `Cc1cc(OCc2cccc(-c3cccc(COc4cc(OCc5cncc(C#N)c5)c(CN(C)[C@@H](CCO)C(=O)O)cc4Cl)c3C)c2C)c(Cl)cc1CN(C)[C@@H](CCO)C(=O)O` [Example 5505, N-(4-((3′-((4-((((S)-1-carboxy-3-hydroxypropyl)(methyl)amino)methyl)-2-chloro-5-((5-cyanopyridin-3-yl)methoxy)phenoxy)methyl)-2,2′-dimethyl-[1,1′-biphenyl]-3-yl)methoxy)-5-chloro-2-methylbenzyl)-N-methyl-L-homoserine]: the IC50 lay in the range of 0.04 to 20 nM. `Cc1cc(OCc2cccc(-c3cccc(COc4cc(OCc5cncc(C#N)c5)c(CN[C@@](C)(CO)C(=O)O)cc4Cl)c3C)c2C)c(Cl)cc1CN[C@@](C)(CO)C(=O)O` [Example 5507, (S)-2-((4-((3′-((4-((((S)-2-carboxy-1-hydroxypropan-2-yl)amino)methyl)-2-chloro-5-((5-cyanopyridin-3-yl)methoxy)phenoxy)methyl)-2,2′-dimethyl-[1,1′-biphenyl]-3-yl)methoxy)-5-chloro-2-methylbenzyl)amino)-3-hydroxy-2-methylpropanoic acid]: the IC50 was 0.04 to 20 nM. `CC(CO)(CO)NCc1cc(Cl)c(OCc2cccc(-c3cccc(COc4cc(OCc5cncc(C#N)c5)c(CNC(C)(CO)CO)cc4Cl)c3)c2)cc1OCc1cncc(C#N)c1` [Example 40010]: the IC50 lay within 0.04 to 20 nM. Consider `C[C@](CO)(NCc1cc(Cl)c(OCc2cccc(-c3cccc(COc4cc(OCc5cncc(C#N)c5)c(CN[C@@](C)(CO)C(=O)O)cc4Cl)c3)c2)cc1OCc1cncc(C#N)c1)C(=O)O` [Example 40040], for which the IC50 is 0.04 to 20 nM.

Consider `N#Cc1cncc(COc2cc(OCc3cccc(-c4cccc(COc5cc(OCc6cncc(C#N)c6)c(CN6CCCC[C@H]6C(=O)O)cc5Cl)c4)c3)c(Cl)cc2CN2CCCC[C@H]2C(=O)O)c1` [Example 40050], for which the IC50 lay in the range of 0.04 to 20 nM. Still for that read-out and setting: the figure for `N#Cc1cncc(COc2cc(OCc3cccc(-c4cccc(COc5cc(OCc6cncc(C#N)c6)c(CN6CCCCC6)cc5Cl)c4)c3)c(Cl)cc2CN2CCCCC2)c1` [Example 40060] is 20.1 to 90 nM.

Take `CCN(CC)CCCNCc1cc(Cl)c(OCc2cccc(-c3cccc(COc4cc(OCc5cncc(C#N)c5)c(CNCCCN(CC)CC)cc4Cl)c3)c2)cc1OCc1cncc(C#N)c1` [Example 40070]: the IC50 was in the range of 0.04 to 20 nM.

Consider `Cc1c(COc2cc(OCc3cncc(C#N)c3)c(CN[C@H](C(=O)O)C(C)(C)O)cc2Cl)cccc1-c1cccc(COc2cc(OCc3cncc(C#N)c3)c(CN[C@H](C(=O)O)C(C)(C)O)cc2Cl)c1C` [Example 40090], for which the IC50 was in the range of 0.04 to 20 nM. As for `Cc1c(COc2cc(OCc3cncc(C#N)c3)c(CNC(C(=O)O)C(C)O)cc2Cl)cccc1-c1cccc(COc2cc(OCc3cncc(C#N)c3)c(CNC(C(=O)O)C(C)O)cc2Cl)c1C` (centres unmarked) [Example 40100], the IC50 lay in the range of 0.04 to 20 nM. With `Cc1c(COc2cc(OCc3cncc(C#N)c3)c(CNC[C@H](O)CC(=O)O)cc2Cl)cccc1-c1cccc(COc2cc(OCc3cncc(C#N)c3)c(CNC[C@H](O)CC(=O)O)cc2Cl)c1C` [Example 40110], the IC50 lay in the range of 0.04 to 20 nM.

As for `Cc1c(COc2cc(O)c(CN[C@@](C)(CO)C(=O)O)cc2Cl)cccc1-c1cccc(COc2cc(OCc3cncc(C#N)c3)c(CN[C@@](C)(CO)C(=O)O)cc2Cl)c1C` [Example 40130], the IC50 is 0.04 to 20 nM. On to `C[C@@](CO)(NCc1cc(Cl)c(OCc2cccc(-c3cccc(COc4cc(OCc5cncc(C#N)c5)c(CN[C@@](C)(CO)C(=O)O)cc4Cl)c3Cl)c2Cl)cc1OCc1cncc(C#N)c1)C(=O)O` [Example 40140], for which the IC50 is 0.04 to 20 nM.

Consider `COC(=O)[C@](C)(CO)NCc1cc(Cl)c(OCc2cccc(-c3cccc(COc4cc(OCc5cncc(C#N)c5)c(CN[C@@](C)(CO)C(=O)OC)cc4Cl)c3C)c2C)cc1OCc1cncc(C#N)c1` [Example 40150], for which the IC50 is 20.1 to 90 nM.

For the molecule `Cc1c(COc2cc(O)c(CN[C@@](C)(CO)C(=O)O)cc2Cl)cccc1-c1cccc(COc2cc(O)c(CN[C@@](C)(CO)C(=O)O)cc2Cl)c1C` [Example 40160], the IC50 fell in the range of 0.04 to 20 nM. In the case of `N#Cc1cncc(COc2cc(OCc3cccc(-c4cccc(COc5cc(OCc6cncc(C#N)c6)c(CNC(CCO)C(=O)O)cc5Cl)c4Cl)c3Cl)c(Cl)cc2CNC(CCO)C(=O)O)c1` (centres unmarked) [Example 40170], the IC50 was 0.04 to 20 nM. With `Cc1c(COc2cc(OCC3CC3)c(CNC(CCO)C(=O)O)cc2Cl)cccc1-c1cccc(COc2cc(OCC3CC3)c(CNC(CCO)C(=O)O)cc2Cl)c1C` (centres unmarked) [Example 40180], the IC50 fell in the range of 0.04 to 20 nM.

`N#Cc1cncc(COc2cc(OCc3cccc(-c4cccc(COc5cc(OCc6cncc(C#N)c6)c(CN[C@@H](CCO)C(=O)O)cc5Cl)c4Cl)c3Cl)c(Cl)cc2CN[C@@H](CCO)C(=O)O)c1` [Example 40190]: the IC50 lay within 0.04 to 20 nM. Take `Cc1c(COc2cc(OCc3cncc(C#N)c3)c(CNC(CO)(Cc3ccccc3)C(=O)O)cc2Cl)cccc1-c1cccc(COc2cc(OCc3cncc(C#N)c3)c(CNC(CO)(Cc3ccccc3)C(=O)O)cc2Cl)c1C` (centres unmarked) [Example 40200]: the IC50 fell in the range of 0.04 to 20 nM. On the same count and under the same terms, the value for `Cc1c(COc2cc(OCc3cncc(C#N)c3)c(CNC[C@H](O)C(=O)O)cc2Cl)cccc1-c1cccc(COc2cc(OCc3cncc(C#N)c3)c(CNC[C@H](O)C(=O)O)cc2Cl)c1C` [Example 40220] was 0.04 to 20 nM; that for `Cc1c(COc2cc(OCc3cncc(C#N)c3)c(CNCC(O)CC(=O)O)cc2Cl)cccc1-c1cccc(COc2cc(OCc3cncc(C#N)c3)c(CNCC(O)CC(=O)O)cc2Cl)c1C` (centres unmarked) [Example 40230] was 0.04 to 20 nM; that for `Cc1c(COc2cc(OCc3cncc(C#N)c3)c(CNC(C)(CO)CO)cc2Cl)cccc1-c1cccc(COc2cc(OCc3cncc(C#N)c3)c(CNC(C)(CO)CO)cc2Cl)c1C` [Example 40250] was 0.04 to 20 nM.

Take `Cc1c(COc2cc(OCc3cncc(C#N)c3)c(CN[C@@H](CO)C(=O)O)cc2Cl)cccc1-c1cccc(COc2cc(OCc3cncc(C#N)c3)c(CN[C@H](CO)C(=O)O)cc2Cl)c1C` [Example 40260]: the IC50 lay in the range of 0.04 to 20 nM. `Cc1c(COc2cc(OCc3cncc(C#N)c3)c(CNC(CCO)C(=O)O)cc2Cl)cccc1-c1cccc(COc2cc(OCc3cncc(C#N)c3)c(CNC(CCO)C(=O)O)cc2Cl)c1C` (centres unmarked) [Example 40270]: the IC50 lay within 0.04 to 20 nM.

Staying with this assay, now noted: numeric IC50; PD-L1-His 10 nM, PD-1-Ig 20 nM; read-out: Range or IC50.
With `Cc1c(COc2cc(OCc3cncc(C#N)c3)c(CNC(C)(CO)C(=O)O)cc2Cl)cccc1-c1cccc(COc2cc(OCc3cncc(C#N)c3)c(CNC(C)(CO)C(=O)O)cc2Cl)c1C` (centres unmarked) [Example 40210], the IC50 stood at 1.1 nM.
